Source: US7785705B2, “Flower thinning agent” (priority 2002, dated 2010)

Legend:
pear (Kosui) tree [1] = assay: Flower thinning effect on pear (Kosui) tree at low air temperature and bad weather; conditions: low air temperature at flowering, bad weather
Excerpt: Using a pear (Kosui) tree, flower thinning effect was confirmed. That is, using the aforementioned pear tree, the flower thinning agent of Example 1 was spread at a concentration indicated in Table 10 two times, at a flowering rate of 30% and 80%. In this respect, at the present experiment, an air temperature at flowering was low, and weather was bad. Therefore, a scatter in flowering was greater than usual. […] Treatment was every branch treatment, and the agent was spread with a back loading sprayer.
(§1) Assessment was expressed as a remaining fruit rate relative to the number of flowering. Regarding medicine damage, results of observation of a leaf state such as defoliation, discolored leaf and deformed leaf were expressed by the following five stages.
According to the same manner as that of Application Example 64 except that any of the flower thinning agents of Examples 4, 5, 7, 9, 15 and 21, and Comparative Examples 1, 4, 8 and 10 was used in place of the flower thinning agent of Example 1, an experiment was performed.
(§2) An effective ingredient concentration was based on a solid matter weight of a lime and sulfur agent.
(§3) An effective ingredient concentration was based on a solid matter weight of itaconic acid.
(§4) An effective ingredient concentration was based on a solid matter weight of high purity lecithin.
An effective ingredient concentration was based on a solid matter weight of calcium formate.

apple (Fuji) tree = assay: Flower thinning effect on apple (Fuji) tree, agent spread two times, one day and three days after full blooming of a central flower; type: in vivo
Excerpt: Using an apple (Fuji) tree, flower thinning effect was confirmed. […] Assessment was expressed by a remaining fruit rate regarding a central flower and a lateral flower.

grape (King Dela) tree = assay: Flower thinning effect on grape (King Dela) tree, agent spread two times, at a flowering rate of 30% and 80%; type: in vivo
Excerpt: Using a grape (King Dela) tree, flower thinning effect was confirmed.
Assessment was expressed as a remaining fruit rate regarding the number of flowering.

pear (Kosui) tree [2] = assay: Flower thinning effect on pear (Kosui) tree, agent spread two times, at a flowering rate of 30% and 80%; type: in vivo
Excerpt: Using a pear (Kosui) tree, flower thinning effect was confirmed. That is, using the aforementioned pear tree, the flower thinning agent of Example 1 was spread at a concentration indicated in Table 6 two times, at a flowering rate of 30% and 80%. […] Treatment was every branch treatment, and the agent was spread with a back loading sprayer.
as §1, §2, §3, §4

[3] = effective ingredient conc. 0.33%
[4] = effective ingredient conc. 1.00%

Structure (SMILES) | Remaining fruit rate (%) (pear (Kosui) tree [1]; effective ingredient conc. 0.15%) | Remaining fruit rate (%) (pear (Kosui) tree [1]; effective ingredient conc. 0.45%) | Fruition rate (%) Central flower (apple (Fuji) tree; [3]) [%] | Fruition rate (%) Lateral flower (apple (Fuji) tree; [3]) [%] | Fruition rate (%) Central flower (apple (Fuji) tree; [4]) [%] | Fruition rate (%) Lateral flower (apple (Fuji) tree; [4]) [%] | Remaining fruit rate (%) (pear (Kosui) tree [1]; [3]) | Remaining fruit rate (%) (pear (Kosui) tree [1]; [4]) | Remaining fruit rate (%) (grape (King Dela) tree; [3]) | Remaining fruit rate (%) (grape (King Dela) tree; [4]) | Remaining fruit rate (%) (pear (Kosui) tree [2]; [3]) | Remaining fruit rate (%) (pear (Kosui) tree [2]; [4])
O=C[O-].O=C[O-].[Ca+2] [calcium formate] | 79.9 | 72.3 |  |  |  |  |  |  |  |  |  | 
C=C(CC(=O)O)C(=O)O [itaconic acid] |  |  | 88.2 | 57.9 | 85.4 | 50.3 | 70.0 | 63.9 | 57.5 | 53.0 | 57.9 | 53.3
